For 29 compounds, inhibition and IC50 results are on record in patent US20140235616A1, “PYRAZOLOQUINOLINONE DERIVATIVES, PREPARATION THEREOF AND THERAPEUTIC USE THEREOF” (SANOFI, priority 2011, published 2014).

The target in the first assay is T1, human MetAP2 (Homo sapiens, UniProt P50579).
T1 construct: made in house; host or cells: Sf9 insect cells (baculovirus)
T1 sequence (P50579 whole entry): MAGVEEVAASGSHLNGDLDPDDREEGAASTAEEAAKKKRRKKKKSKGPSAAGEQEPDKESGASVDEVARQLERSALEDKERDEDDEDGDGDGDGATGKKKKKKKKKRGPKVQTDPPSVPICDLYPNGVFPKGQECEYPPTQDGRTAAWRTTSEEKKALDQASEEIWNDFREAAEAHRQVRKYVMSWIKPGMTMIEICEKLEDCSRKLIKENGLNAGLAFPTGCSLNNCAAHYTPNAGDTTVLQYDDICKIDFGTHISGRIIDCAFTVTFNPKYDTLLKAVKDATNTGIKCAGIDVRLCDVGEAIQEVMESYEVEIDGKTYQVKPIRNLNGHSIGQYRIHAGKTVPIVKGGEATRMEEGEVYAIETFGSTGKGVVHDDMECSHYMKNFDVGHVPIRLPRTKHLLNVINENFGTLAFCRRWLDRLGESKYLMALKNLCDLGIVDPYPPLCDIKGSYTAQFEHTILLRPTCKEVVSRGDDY
Kind of assay: MetAP2 enzymatic screening test (isolated enzyme, Met-Pro-Arg-pNa substrate, absorbance at 405 nm). It counts as biochemical. Particulars: read-out: % inhibition hMETAP2 at 100 nM. The protocol: The compounds according to the invention underwent biochemical studies in order to determine their capacity to inhibit the enzyme methionine-aminopeptidase2 (enzymatic test on isolated enzyme).
MetAP2 Enzymatic Screening Test
For the enzymatic test, human MetAP2 protein was obtained from a culture supernatant of insect cells (sf9) infected with MetAP2 recombinant baculovirus.
Before performing the experiment, dialysis of the MetAP2 supernatant is performed over 24 hours at 4° C. in a buffer (10 mM Hepes, 100 mM KCl, 10% glycerol, pH 7.4) in the presence of EDTA (1 mM) over the first 12 hours.
The dialysis supernatant is recovered and manganese, used as cofactor, is added to a final concentration of 300 μM.
The enzymatic test is a test in two steps.
Consequently, the second step consists in reacting the peptides cleaved in the preceding step with a second peptidase in order to release the chromophore.
Usually inhibition stands for the share of the control response that was lost under treatment. As to `O=c1c2cn[nH]c2c2ccc(-c3cc(Cl)cnc3Cl)cc2n1CC(F)(F)F` [Compound 57, 7-(2,5-dichloropyrid-3-yl)-5-(2,2,2-trifluoroethyl)-1,5-dihydro-4H-pyrazolo[4,3-c]quinolin-4-one], the inhibition at 0.1 µM is 38%.

On to `O=c1c2cn[nH]c2c2ccc(-c3ccccc3-c3cnco3)cc2n1CC(F)(F)F` [Compound 148, 7-(2-oxazol-5-ylphenyl)-5-(2,2,2-trifluoroethyl)-1,5-dihydro-4H-pyrazolo[4,3-c]quinolin-4-one], for which the inhibition at 0.1 µM was 42%.

Consider `Cc1cc(-c2ccc3c4[nH]ncc4c(=O)n(CC(F)(F)F)c3c2)ccn1` [Compound 186, 7-(2-methylpyrid-4-yl)-5-(2,2,2-trifluoroethyl)-1,5-dihydro-4H-pyrazolo[4,3-c]quinolin-4-one], for which the inhibition at 0.1 µM stood at 43%.

Take `COc1ccc(-c2ccc3c4[nH]ncc4c(=O)n(CC(F)(F)F)c3c2)cn1` [Compound 128, 7-(6-methoxypyrid-3-yl)-5-(2,2,2-trifluoroethyl)-1,5-dihydro-4H-pyrazolo[4,3-c]quinolin-4-one]: the inhibition at 0.1 µM amounted to 41%.

For the compound `CCn1c(=O)c2cn[nH]c2c2ccc(-c3cnc(N4CCN(C)CC4)nc3)cc21` [Compound 31, 5-ethyl-7-[2-(4-methylpiperazin-1-yl)pyrimidin-5-yl]-1,5-dihydro-4H-pyrazolo[4,3-c]quinolin-4-one], the inhibition at 0.1 µM stood at 64%.

As to `N#Cc1cccc(-c2ccc3c4[nH]ncc4c(=O)n(CC(F)(F)F)c3c2)n1` [Compound 153, 6-[4-oxo-5-(2,2,2-trifluoroethyl)-4,5-dihydro-1H-pyrazolo[4,3-c]quinolin-7-yl]pyridine-2-carbonitrile], the inhibition at 0.1 µM was determined as 41%.

On to `CCCc1ncncc1-c1ccc2c3[nH]ncc3c(=O)n(CC(F)(F)F)c2c1` [Compound 146, 7-(4-propylpyrimidin-5-yl)-5-(2,2,2-trifluoroethyl)-1,5-dihydro-4H-pyrazolo[4,3-c]quinolin-4-one], for which the inhibition at 0.1 µM worked out at 42%.

On to `CC(C)c1ncncc1-c1ccc2c3[nH]ncc3c(=O)n(CC(F)(F)F)c2c1` [Compound 162, 7-(4-isopropylpyrimidin-5-yl)-5-(2,2,2-trifluoroethyl)-1,5-dihydro-4H-pyrazolo[4,3-c]quinolin-4-one], for which the inhibition at 0.1 µM turned out to be 38%.

On to `O=C(c1ccc(-c2ccc3c4[nH]ncc4c(=O)n(CC(F)(F)F)c3c2)cn1)N1CCOCC1` [Compound 141, 7-[6-(morpholine-4-carbonyl)pyrid-3-yl]-5-(2,2,2-trifluoroethyl)-1,5-dihydro-4H-pyrazolo[4,3-c]quinolin-4-one], for which the inhibition at 0.1 µM stood at 44%.

As for `O=c1c2cn[nH]c2c2ccc(-c3ccccc3F)cc2n1CC(F)(F)F` [Compound 3, 7-(2-fluorophenyl)-5-(2,2,2-trifluoroethyl)-1,5-dihydro-4H-pyrazolo[4,3-c]quinolin-4-one], the inhibition at 0.1 µM was determined as 34%.

Regarding `CCn1c(=O)c2cn[nH]c2c2ccc(-c3ccc(C(C)N4CCCC4)cc3)cc21` (stereo not shown) [Compound 22, 5-ethyl-7-[4-(1-pyrrolidin-1-yl-ethyl)phenyl]-1,5-dihydro-4H-pyrazolo[4,3-c]quinolin-4-one], the inhibition at 0.1 µM amounted to 69%.

Turning to `CCn1c(=O)c2cn[nH]c2c2ccc(-c3ccc(N4CCNCC4)cc3)cc21` [Compound 10, 5-ethyl-7-(4-piperazin-1-ylphenyl)-1,5-dihydro-4H-pyrazolo[4,3-c]quinolin-4-one], the inhibition at 0.1 µM is 77%.

Turning to `CCn1c(=O)c2cn[nH]c2c2ccc(-c3ccc(N)cc3C)cc21` [Compound 24, 7-(4-amino-2-methylphenyl)-5-ethyl-1,5-dihydro-4H-pyrazolo[4,3-c]quinolin-4-one], the inhibition at 0.1 µM stood at 67%.

Consider `COC(=O)c1ccc(-c2ccc3c4[nH]ncc4c(=O)n(CC(F)(F)F)c3c2)c(N)c1` [Compound 55, methyl 3-amino-4-[4-oxo-5-(2,2,2-trifluoroethyl)-4,5-dihydro-1H-pyrazolo[4,3-c]quinolin-7-yl]benzoate], for which the inhibition at 0.1 µM was found to be 40%.

Regarding `COc1cc(C)c(-c2ccc3c4[nH]ncc4c(=O)n(CC(F)(F)F)c3c2)cn1` [Compound 161, 7-(6-methoxy-4-methylpyrid-3-yl)-5-(2,2,2-trifluoroethyl)-1,5-dihydro-4H-pyrazolo[4,3-c]quinolin-4-one], the inhibition at 0.1 µM was found to be 39%.

As to `CCc1nc(-c2ccccc2-c2ccc3c4[nH]ncc4c(=O)n(CC(F)(F)F)c3c2)no1` [Compound 150, 7-[2-(5-ethyl-[1,2,4]oxadiazol-3-yl)phenyl]-5-(2,2,2-trifluoroethyl)-1,5-dihydro-4H-pyrazolo[4,3-c]quinolin-4-one], the inhibition at 0.1 µM was 42%.

In the case of `CCn1c(=O)c2cn[nH]c2c2ccc(-c3ccc(C(=O)NCCN(C)C)cc3)cc21` [Compound 13, N-(2-dimethylaminoethyl)-4-(5-ethyl-4-oxo-4,5-dihydro-1H-pyrazolo[4,3-c]quinolin-7-yl)benzamide], the inhibition at 0.1 µM came to 75%.

Take `Cc1cc(-c2ccc3c4[nH]ncc4c(=O)n(CC(F)(F)F)c3c2)cnc1-n1cnnc1` [Compound 139, 7-(5-methyl-6-[1,2,4]triazol-4-ylpyrid-3-yl)-5-(2,2,2-trifluoroethyl)-1,5-dihydro-4H-pyrazolo[4,3-c]quinolin-4-one]: the inhibition at 0.1 µM amounted to 44%.

As to `CCn1c(=O)c2cn[nH]c2c2ccc(-c3cccc(C(=O)NCCN(C)C)c3)cc21` [Compound 37, N-(2-dimethylaminoethyl)-3-(5-ethyl-4-oxo-4,5-dihydro-1H-pyrazolo[4,3-c]quinolin-7-yl)benzamide], the inhibition at 0.1 µM came out at 60%.

As to `CCn1c(=O)c2cn[nH]c2c2ccc(-c3ccc(C(=O)NCCCN(C)C)cc3)cc21` [Compound 9, N-(3-dimethylaminopropyl)-4-(5-ethyl-4-oxo-4,5-dihydro-1H-pyrazolo[4,3-c]quinolin-7-yl)benzamide], the inhibition at 0.1 µM is 78%.

Consider `O=c1c2cn[nH]c2c2ccc(-c3ccc(CO)cn3)cc2n1CC(F)(F)F` [Compound 157, 7-(5-hydroxymethylpyrid-2-yl)-5-(2,2,2-trifluoroethyl)-1,5-dihydro-4H-pyrazolo[4,3-c]quinolin-4-one], for which the inhibition at 0.1 µM worked out at 41%.

For `COc1ccc(-c2ccc3c4[nH]ncc4c(=O)n(CC(F)(F)F)c3c2)c(CO)c1` [Compound 49, 7-(2-hydroxymethyl-4-methoxyphenyl)-5-(2,2,2-trifluoroethyl)-1,5-dihydro-4H-pyrazolo[4,3-c]quinolin-4-one], the inhibition at 0.1 µM was 45%.

For `O=c1c2cn[nH]c2c2ccc(-c3cccc(CO)n3)cc2n1CC(F)(F)F` [Compound 154, 7-(6-hydroxymethylpyrid-2-yl)-5-(2,2,2-trifluoroethyl)-1,5-dihydro-4H-pyrazolo[4,3-c]quinolin-4-one], the inhibition at 0.1 µM was found to be 41%.

As to `CC(C)NS(=O)(=O)c1ccccc1-c1ccc2c3[nH]ncc3c(=O)n(CC(F)(F)F)c2c1` [Compound 134, N-isopropyl-2-[4-oxo-5-(2,2,2-trifluoroethyl)-4,5-dihydro-1H-pyrazolo[4,3-c]quinolin-7-yl]benzenesulfonamide], the inhibition at 0.1 µM turned out to be 45%.

`O=c1c2cn[nH]c2c2ccc(-c3ccccc3S(=O)(=O)N3CCCC3)cc2n1CC(F)(F)F` [Compound 133, 7-[2-(pyrrolidine-1-sulfonyl)phenyl]-5-(2,2,2-trifluoroethyl)-1,5-dihydro-4H-pyrazolo[4,3-c]quinolin-4-one]: the inhibition at 0.1 µM was found to be 45%.

Regarding `CCn1c(=O)c2cn[nH]c2c2ccc(-c3ccc(N4CCN(C)CC4)cc3)cc21` [Compound 11, 5-ethyl-7-[4-(4-methylpiperazin-1-yl)phenyl]-1,5-dihydro-4H-pyrazolo[4,3-c]quinolin-4-one], the inhibition at 0.1 µM was determined as 76%.

`CCn1c(=O)c2cn[nH]c2c2ccc(-c3ccc(F)c(C(=O)NC)c3)cc21` [Compound 27, 5-(5-ethyl-4-oxo-4,5-dihydro-1H-pyrazolo[4,3-c]quinolin-7-yl)-2-fluoro-N-methylbenzamide]: the inhibition at 0.1 µM amounted to 67%.

Consider `CCn1c(=O)c2cn[nH]c2c2ccc(-c3ccc(C(N)=O)c(Cl)c3)cc21` [Compound 33, 2-chloro-4-(5-ethyl-4-oxo-4,5-dihydro-1H-pyrazolo[4,3-c]quinolin-7-yl)benzamide], for which the inhibition at 0.1 µM amounted to 62%.

Take `COc1ccnc(-c2ccc3c4[nH]ncc4c(=O)n(CC(F)(F)F)c3c2)c1` [Compound 145, 7-(4-methoxypyrid-2-yl)-5-(2,2,2-trifluoroethyl)-1,5-dihydro-4H-pyrazolo[4,3-c]quinolin-4-one]: the inhibition at 0.1 µM was found to be 42%.

A further assay relates to HUVEC cells. Kind of assay: Test of in vitro proliferation of HUVEC cells induced with FGF-2. The settings on record: Homo sapiens, read-out: HUVEC Proliferation IC50 (M).
Protocol: Test of In Vitro Proliferation of HUVEC Cells Induced with Fibroblast Growth Factor 2 (FGF-2).
After incubation for 48 hours, the medium is aspirated and replaced with the deprivation medium RPMI1640 mentioned previously. A second stimulation is then performed. The cells are again incubated at 37° C. in the presence of CO2. After incubation for 72 hours, the medium is again aspirated and 100 μl of Cell Titer-GLO™ Luminescent Cell Viability Assay (Promega, G7571) are added over 10 minutes. The amount of ATP present in the cells, measured using a luminometer, is proportional to the number cells per well corresponding to the cell proliferation.
In the case of `Cc1cc(-c2ccc3c4[nH]ncc4c(=O)n(CC(F)(F)F)c3c2)ccn1` [Compound 186, 7-(2-methylpyrid-4-yl)-5-(2,2,2-trifluoroethyl)-1,5-dihydro-4H-pyrazolo[4,3-c]quinolin-4-one], the IC50 came to 3.6e-07 M.

Take `O=c1c2cn[nH]c2c2ccc(-c3ccccc3F)cc2n1CC(F)(F)F` [Compound 3, 7-(2-fluorophenyl)-5-(2,2,2-trifluoroethyl)-1,5-dihydro-4H-pyrazolo[4,3-c]quinolin-4-one]: the IC50 stood at 6.6e-07 M.
